Consider one substance from patent US12065622B2, “Ammonium-based ionic liquid and its use as a lubricant additive” (TOTALENERGIES ONETECH, priority 2020, dated 2024).

This series can be described thus: Base number (TBN) according to ASTM D2896. Format: physicochemical. As to conditions: neat ionic liquid. As to the method: An oil's neutralization capacity is measured by its BN or Base Number, characterized by its basicity. It is measured according to standard ASTM D-2896 and is expressed as an equivalent in milligrams of potash per gram of oil (also called “mg of KOH/g” or “BN point”). The BN is a standard criterion making it possible to adjust the basicity of the cylinder oils to the sulphur content of the fuel oil used, in order to be able to neutralize all of the sulphur contained in the fuel, and capable of being converted to sulphuric acid by combustion and hydrolysis.

“Tri-n-Octylmethylammonium 2-Ethylhexanoate [IL1]” displayed a base number of 114 mg KOH/g.
